Values quoted from earlier work as cited in patent US20220403162A1, “POLYURETHANE COMPOSITIONS SALTED WITH BISBIGUANIDE” (Lubrizol Advanced Materials, Inc., priority 2019, published 2022).

| Structure (SMILES) | solubility in water (The Merck Index) | solubility in water or alcohol (quoted from US 2004/0052831 A1) |
| --- | --- | --- |
| N=C(NCCCCCCNC(=N)NC(=N)Nc1ccc(Cl)cc1)NC(=N)Nc1ccc(Cl)cc1.O=C(O)[C@H](O)[C@@H](O)[C@H](O)[C@H](O)CO.O=C(O)[C@H](O)[C@@H](O)[C@H](O)[C@H](O)CO [CHG, chlorhexidine digluconate] | at least 50% |  |
| [H]/N=C(\N/C(=N/[H])NCCCCCCNC(=N)NC(=N)Nc1ccc(Cl)cc1)Nc1ccc(Cl)cc1 [Chlorhexidine, 1,6-bis(4-chloro-phenylbiguanido)hexane] |  | not soluble |
